Assay results from US4354033A, “Anthranilic acid esters” (Council of Scientific & Industrial Research, priority 1981, dated 1982).

Experiments:
[1] = system: formaldehyde induced arthritis; experiment: Formaldehyde arthritis; type: in vivo; details: 100 mg/kg orally daily for 10 days
[2] = Anti-inflammatory activity in a battery of tests (summary statement); type: in vivo
[3] = system: capillary permeability; details: at 100 mg
[4] = system: carrageenin oedema; experiment: Antiinflammatory action (rats), carrageenin oedema; type: in vivo; details: for inhibition of carrageenin oedema: 200 mg/kg (p.o.); for inhibition (carrageenin): rats, 100 mg/kg p.o.
Description: Antiinflammatory action (Rats): Dose: 100 mg/kg p.o.
(ii) It produces 30% inhibition when given 1/2 hour before the injection of carrageenin.
Effect on carrageenin oedema at 200 mg/kg (p.o.)
(i) 60% inhibition when given 1 hour before the injection of carrageenin.
(iii) 62% of inhibition when given 1/2 hour after the injection of carrageenin.
Antiinflammatory action (Rats)
Effect on carrageenin oedema at 200 mg/kg

[5] = system: cotton pellet granuloma; experiment: Cotton pellet granuloma; type: in vivo; details: 100 mg/kg orally daily for 7 days
[6] = Ulcerogenic properties; type: in vivo; details: 100 mg/kg daily orally for 7 days
[7] = LD50 i.p. in mice; details: mouse, in vivo, ip
[8] = 1/2 hour after injection of carrageenin
[9] = 1/2 hour before injection of carrageenin

**Q.** Which “inhibition of formaldehyde induced arthritis” value [1] does the source give for `O=C(COC(=O)c1ccccc1NCCc1ccccc1)c1ccccc1` [2-N-β-phenethyl phenacyl anthranilate, 2-N-β-phenethyl-phenacyl anthranilate] here?
**A.** The value was 14%.

**Q.** And the anti-inflammatory activity [2]?
**A.** The anti-inflammatory activity was “potent anti-inflammatory activity”.

**Q.** And the “inhibition (mouse capillary permeability)” value [3]?
**A.** Its value is 52%.

**Q.** What about the “inhibition of carrageenin oedema” value [4, 8] of the same molecule?
**A.** Its value is 62%.

**Q.** What about the “inhibition of carrageenin oedema” value [4, 9] of the same molecule?
**A.** The value was 43%.

**Q.** What about the “inhibition of carrageenin oedema” value ([4]; 1 hour before injection of carrageenin) of the same molecule?
**A.** The value was 60%.

**Q.** And the “inhibition (carrageenin)” value [4, 8]?
**A.** Its value is 43%.

**Q.** And the “inhibition (carrageenin)” value [4, 9]?
**A.** Its value is 30%.

**Q.** What about the “inhibition (carrageenin)” value ([4]; one hour before injection of carrageenin) of the same molecule?
**A.** The value was 44.5%.

**Q.** And the “inhibition of cotton pellet granuloma” value [5]?
**A.** The value was 31%.

**Q.** And the ulcerogenic activity [6]?
**A.** The ulcerogenic activity was “does not show any ulcerogenic activity”.

**Q.** And the LD50 [7]?
**A.** The LD50 was greater than 800 mg/kg.
